Experimental data: article PMC9901219 (European Journal of Medicinal Chemistry, 2023)

Legend:
Human Calpain 1 = target: T1, Human Calpain 1 (Homo sapiens, UniProt P07384); experiment: Calpain assay; format: biochemical
T1 sequence (P07384 1-714): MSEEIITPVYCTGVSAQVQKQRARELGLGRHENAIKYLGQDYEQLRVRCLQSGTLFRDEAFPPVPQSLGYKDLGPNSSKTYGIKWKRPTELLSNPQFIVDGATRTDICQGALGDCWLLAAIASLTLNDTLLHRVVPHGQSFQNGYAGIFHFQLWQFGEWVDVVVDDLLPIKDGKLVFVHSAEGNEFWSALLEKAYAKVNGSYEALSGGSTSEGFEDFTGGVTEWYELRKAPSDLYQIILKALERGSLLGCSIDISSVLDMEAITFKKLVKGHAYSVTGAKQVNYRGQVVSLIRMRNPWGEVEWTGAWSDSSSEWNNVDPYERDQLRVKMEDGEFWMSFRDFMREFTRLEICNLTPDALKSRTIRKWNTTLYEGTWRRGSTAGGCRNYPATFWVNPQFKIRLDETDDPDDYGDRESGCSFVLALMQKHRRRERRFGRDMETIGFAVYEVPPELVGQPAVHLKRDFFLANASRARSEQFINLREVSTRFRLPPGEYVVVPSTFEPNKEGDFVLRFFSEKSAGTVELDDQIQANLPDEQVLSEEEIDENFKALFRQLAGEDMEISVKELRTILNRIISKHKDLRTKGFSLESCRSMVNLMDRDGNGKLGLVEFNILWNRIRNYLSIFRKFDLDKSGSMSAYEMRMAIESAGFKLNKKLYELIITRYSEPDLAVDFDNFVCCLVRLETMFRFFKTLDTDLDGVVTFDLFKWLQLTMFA
T1 sequence (P04632 1-268 partner): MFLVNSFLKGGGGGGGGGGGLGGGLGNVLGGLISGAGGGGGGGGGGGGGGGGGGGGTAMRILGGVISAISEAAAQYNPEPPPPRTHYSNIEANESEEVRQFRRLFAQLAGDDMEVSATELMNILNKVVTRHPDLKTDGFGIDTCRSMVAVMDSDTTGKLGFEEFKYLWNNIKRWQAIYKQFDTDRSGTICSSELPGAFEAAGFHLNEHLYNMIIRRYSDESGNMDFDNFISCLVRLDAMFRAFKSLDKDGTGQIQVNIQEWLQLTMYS

SARS-CoV-2 3CLpro [1] = target: T2, SARS-CoV-2 3CLpro (Severe acute respiratory syndrome coronavirus 2, UniProt P0DTD1); format: binding
SARS-CoV-2 3CLpro [2] = target: T2, SARS-CoV-2 3CLpro; format: biochemical
Cathepsin L = Cathepsin L (Homo sapiens, UniProt P07711); format: biochemical; details: calpain 1 and cathepsin L versus SARS-CoV-2 3CLpro
Sequence of Cathepsin L (P07711 114-333): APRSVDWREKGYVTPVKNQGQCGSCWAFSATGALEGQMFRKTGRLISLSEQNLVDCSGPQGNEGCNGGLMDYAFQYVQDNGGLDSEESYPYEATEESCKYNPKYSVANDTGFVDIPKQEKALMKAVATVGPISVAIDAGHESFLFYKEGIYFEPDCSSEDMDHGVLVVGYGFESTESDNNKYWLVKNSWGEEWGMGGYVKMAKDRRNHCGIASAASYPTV

[3] = Stability of compound in enzymatic assay buffer with GSH; format: physicochemical
SARS-CoV-2 3CLpro [4] = target: T2, SARS-CoV-2 3CLpro; experiment: biochemical

Compound: Cc1cccc2nc(CSC(=S)NCc3cccnc3)cn12 [Compound 1, (5-methylimidazo[1,2-a]pyridin-2-yl)methyl (pyridin-3-ylmethyl)carbamodithioate]
- IC50 (Human Calpain 1): > 300 µM
- Human Calpain 1 pIC50 ± SD (Human Calpain 1; GSH 2 mM, pre-incubation of 30 min): > 3.52
- Thermal shift ΔTm of SARS-CoV-2 3CLpro with GSH (SARS-CoV-2 3CLpro [1]): 11.33 °C
- enzyme inhibition after jump dilution (SARS-CoV-2 3CLpro [2]): around 80%
- enzyme inhibition after jump dilution (words) (SARS-CoV-2 3CLpro [2]): no more inhibition
- time within which inhibition is reversible (SARS-CoV-2 3CLpro [2]): ≤ 2 h
- selectivity over two human cysteine proteases (Cathepsin L): more than 80 fold
- disappearance of the compound ([3]; 100 μM in enzymatic assay buffer, 2 mM GSH, 1.5 h incubation): less than 10%
- reaction conversion with GSH ([3]; after 90 min, GSH 2 mM): < 10%
- Assay without GSH pIC50 ± SD (SARS-CoV-2 3CLpro [4]): 7.67 ± 0.30
- SARS-CoV-2 (Beta-CoV) 3CLpro pIC50 ± SD (SARS-CoV-2 3CLpro [4]): 0.021 (7.67 ± 0.30)
- IC50 (SARS-CoV-2 3CLpro [4]; SARS-CoV-2 3CLpro IC50): 1.75 µM

Compound: CCSC(=S)NCc1cccnc1 [Compound 1B, Ethyl (pyridin-3-ylmethyl)carbamodithioate]
- fold lower potency compared to compound 1 (SARS-CoV-2 3CLpro [4]): 8 fold

Compound: Cc1cccc2nc(CNC(=S)NCc3cccnc3)cn12 [Compound 1A, 1-((5-methylimidazo[1,2-a]pyridin-2-yl)methyl)-3-(pyridin-3-ylmethyl)thiourea]
- Assay without GSH pIC50 ± SD (SARS-CoV-2 3CLpro [4]): 4.46 ± 0.19
- inhibitory effect on SARS-CoV-2 3CLpro (SARS-CoV-2 3CLpro [4]): inactive

Compound: CC(=O)[O-].CC(=O)[O-].[Zn+2] [zinc acetate, reference compound]
- inhibitory activity in presence of zinc chelator EDTA (SARS-CoV-2 3CLpro [4]): completely loose its inhibitory activity

Compound: S=C(NCc1cccnc1)OCc1ccccc1 [Compound 1D, O-benzyl(pyridin-3-ylmethyl)carbamothioate]
- inhibitory effect on SARS-CoV-2 3CLpro (SARS-CoV-2 3CLpro [4]): inactive
